According to article PMC3933301 (Journal of medicinal chemistry, 2013):
Converted amounts (≈) assume the structure as drawn.

Tests used:
[1] = test system: Mtb clinical strain NHN382 (isoniazide-resistant); type: cell-based, Mycobacterium tuberculosis
[2] = test system: Mtb clinical strain TN587 (isoniazide-resistant); type: cell-based, Mycobacterium tuberculosis

SMILES	MIC, Mtb strain NHN382 [1]	MIC, Mtb strain TN587 [2]
NNC(=O)c1ccncc1 [INH, isoniazid, reference compound]	0.25 µg/mL (≈ 1.82 µM)	0.25 µg/mL (≈ 1.82 µM)
CCCCOC(=O)Nc1cc2nc(C3CCCCC3)[nH]c2cc1N(C)C [Compound 5f, 5-Butyloxycarbonylamino-2-cyclohexyl-6-N,N-dimethylamino-1H-benzo[d]imidazole]	–	0.13 µg/mL (≈ 0.363 µM)
